Results as given in patent publication US8299129B2, “Peptide lipid-containing carrier and method for introducing compound into cells using same” (Fukuoka Prefectural Government, priority 2006, dated 2012).

Key:
Balb/c mouse [1] = experiment: Acute toxicity in mouse after tail vein injection of peptide lipid-RNA complex; type: in vivo; settings: at the concentration tested
Method: (§1) Cy3-labeled siRNA ([…], purchased from Dharmacon) was mixed with 200 μl of 150 mM NaCl solution, 1.3 mM peptide lipid (RE-C12) (16 μl) was mixed with the above-mentioned siRNA solution and the mixture was incubated for 5 min to give peptide lipid—RNA complex. This was injected to Balb/c mouse (15-week-old) from the tail vein. […] Four hours later, the mouse was autopsied and each tissue (heart, lung, liver, kidney, spleen) was removed, which was cut into small pieces and observed with a fluorescence microscope. When peptide lipid was used as a carrier, siRNA could be introduced into each tissue in the body.

Balb/c mouse [2] = experiment: Introduction of Cy3-labeled siRNA into mouse tissues using peptide lipid, fluorescence microscopy of removed tissues; type: in vivo; settings: tail vein injection, Cy3-labeled siRNA complex, 4 hours
Method: as §1

## Arg-Glu-C12 [RE-C12]
Balb/c mouse [1]
  acute toxicity: acute toxicity was not observed
Balb/c mouse [2]
  Introduction efficiency into the liver and spleen: particularly superior
Balb/c mouse [2]; heart
  evaluation (introduction of siRNA), heart: 5%
Balb/c mouse [2]; kidney
  evaluation (introduction of siRNA), kidney: 5%
Balb/c mouse [2]; liver
  evaluation (introduction of siRNA), liver: 25%
Balb/c mouse [2]; lung
  evaluation (introduction of siRNA), lung: 10%
Balb/c mouse [2]; spleen
  evaluation (introduction of siRNA), spleen: 30%
